Data reported in PMC5855688, “BC-Box Motif-Mediated Neuronal Differentiation of Somatic Stem Cells” (International Journal of Molecular Sciences, 2018).

Test system: skin-derived precursors (SKPs)
Test: Neurite outgrowth / morphological evaluation of neuronal differentiation
Assay type: cell-based, rat (neonate Wistar)
Details: delivered with TAT PTD, 1 to 5 μM
Procedure: Rodent skin-derived precursor cells (SKPs), which can differentiate to neurons, were used. SKPs were previously isolated from the back dermis of neonate Wistar rats by the authors. These cells were cultured in growth medium composed of DMEM/F12 (1:1; Gibco, Grand Island, NY, USA) containing 2% B27 supplement (Gibco), 20 ng/mL epidermal growth factor (EGF; Upstate Biotechnology, Lake Placid, NY, USA), and 40 ng/mL bFGF (PeproTech EC Ltd., Rocky Hill, NJ, USA) in a humidified incubator at 37 °C with 5% CO2. The floating clusters of cultured cells were centrifuged and dissociated into a single-cell suspension by use of a Pasteur pipette with a flame-polished tip. These single cells were then re-suspended into at a concentration of 50,000 cells/mL for passage or experiments. […]
Neurite outgrowth with length exceeding the diameter of the neuronal soma is often assessed as a morphological index of neuronal differentiation. […] Thereafter, neurite outgrowth was evaluated with the following 4 levels: +++, for above 50% of the cells showing neurite outgrowth; ++, for 20–50% with neurite outgrowth; +, for 5–19% having neurite outgrowth; and −, for below 5% of the cells with neurite outgrowth.

## YARAAARQARASLTHLCRLEI [ASB3 BC-box motif alone]
BC-box motif alone (10-residue) peptides
  Neurite Outgrowth Activity: - (below 5% of the cells with neurite outgrowth)

## YARAAARQARASLTHLCRLEIRSSIK [ASB3 BC-box motif plus five amino acids]
BC-box motif plus five C-terminal amino acids peptides
  Neurite Outgrowth Activity: ++ (20–50% with neurite outgrowth)
